According to US8535661B2, “Enzymatically active compositions for suppressing sulfide generation and methods of use thereof” (LCP Tech Holdings LLC, priority 2007, dated 2013):

Legend:
[1] = tested on: Sulfide-Producing Bacteria; conditions: reported biocide treatment levels; cited from earlier work
[2] = tested on: bacteria; experiment: Bacterial counts in treated contaminated metalworking fluid samples; format: cell-based
Method: (§1) A used metalworking fluid from a Midwest automotive plant and a soluble oil having a high sulfate content were used to prepare synthetic effluent by combining about 200 ml of the oil with about four gallons (about 15 L) of water and one gallon (about 3.84 L) of the contaminated metal working fluid. The mixture was allowed to stand for about ten days and smelled of hydrogen sulfide by the end of this period. The mixture was then stirred and 15 samples (about 500 mL each) were removed and placed in separate containers. The containers were allowed to stand, open to the air, for about 4 additional days, after which time the aerobic bacterial count in each of the sample was measured using Biosan BF test strips. All of the samples contained >10′ bacteria/mL and smelled of hydrogen sulfide, indicating the presence of anaerobic bacteria, as well. The 15 samples, at neutral pH, were then individually treated with different biocides and combinations of biocides with the enzymatic composition of Example 1. The bacterial and yeast/mold counts in each sample were monitored over about 14 days.

[3] = tested on: yeast and mold; experiment: Mold and yeast counts in treated contaminated metalworking fluid samples; format: cell-based
Method: as §1

[4] = tested on: SRB; experiment: Hydrogen sulfide from containers with SRB-contaminated sugar beet pond water
Method: A leachate from a sugar beet pond contaminated with SRB was fed into three 5-gallon containers filled with a nutrient source, sulfate and water. The contents in each container consisted of about 500 mL of SRB-contaminated sugar beet pond water, about 3.84 liters of vinegar (about 5% acetic acid content) about 450 mL of 0.5 N sulfuric acid, about 150 g of sodium hydroxide to adjust the pH to about 6.8, the normal pH and enough additional water to achieve a total volume of about 5 gallons. Nitrogen gas was continuously passed through the each container to eliminate any oxygen and to provide a gas flow in which to measure hydrogen sulfide generated in each container. About 500 ppm of a 10% solution of sodium hypochlorite was added to one of the reactors. An identical amount hypochlorite was added to another reactor, along with about 500 ppm of the composition of Example 1. About 500 ppm of the composition of Example 1 was added to the third container (without hypochlorite). The hydrogen sulfide level in the nitrogen gas stream from each container was monitored over time. The container treated only with the composition of the invention went to zero hydrogen sulfide production over about seven days, and stayed at zero for about four days thereafter. The container treated with bleach alone went to zero within six days and remained at zero for less than one day. […] The hydrogen sulfide concentration from the container treated with both hypochlorite and the composition of Example 1 fell to zero over about 13 days and remained at zero for greater than eight days. From the data in FIG. 4, it is clear that the enzymatically active compositions of the invention can work cooperatively with inexpensive biocidal compositions such as hypochlorite to effectively extend the useful lifetime of inexpensive biocides such as hypochlorite.

[5] = tested on: Desulfovibrio vulgaris; experiment: Sulfide concentration in nitrogen stream from Desulfovibrio vulgaris cultures; format: cell-based; conditions: about 10 mM sodium nitrate; decrease after about 9 hours
Method: Laboratory studies were conducted by growing cultures of Desulfovibrio vulgaris, available from NCIMB Ltd, Aberdeen, Scotland, UK as NCIMB 8303 (see Postgate, J. R., The Sulfate-Reducing Bacteria, 2nd Ed., Cambridge University Press, Cambridge; 1984) in 100 mL aliquots of mCSB containing 12 mM sodium sulfate, 30 mM sodium lactate and 10 mM sodium nitrate in one-liter serum bottles sealed with butyl rubber stoppers, which were flushed with nitrogen and autoclaved at about 120° C. prior to use. A 2% inoculum of freshly prepared D. vulgaris culture was added to the medium in each bottle and incubated at about 30° C. Each culture was grown to mid-log phase to achieve a sulfide concentration of about 12.2±1.4 mM before adding about 25 mL of an aqueous 100 ppm solution of the enzymic composition of Example 1 to each culture. Each culture was then sparged with 99.99% pure nitrogen gas and the pH was adjusted to 6.4 using a dilute solution of nitric acid. The sulfide concentration in the nitrogen stream from each culture bottle was monitored as a function of time.

[6] = about 500 ppm of each agent (hypochlorite as 10% solution), pH about 6.8

| Compound | Minimum Concentration that prevents sulfide production [1] [mg/L] | Bacterial Counts ([2]; Day 0) | Bacterial Counts ([2]; Day 1) [bacteria/mL] | Bacterial Counts ([2]; Day 3) [bacteria/mL] | Bacterial Counts ([2]; Day 4) [bacteria/mL] | Bacterial Counts ([2]; Day 6) [bacteria/mL] | Bacterial Counts ([2]; Day 8) | Bacterial Counts ([2]; Day 10) | Bacterial Counts ([2]; Day 12) | Bacterial Counts ([2]; Day 14) | Mold and Yeast Counts ([3]; Day 0) | Mold and Yeast Counts ([3]; Day 1) | Mold and Yeast Counts ([3]; Day 3) | Mold and Yeast Counts ([3]; Day 4) | Mold and Yeast Counts ([3]; Day 6) | Mold and Yeast Counts ([3]; Day 8) | Mold and Yeast Counts ([3]; Day 10) | Mold and Yeast Counts ([3]; Day 12) | Mold and Yeast Counts ([3]; Day 14) | further results |
| --- | --- | --- | --- | --- | --- | --- | --- | --- | --- | --- | --- | --- | --- | --- | --- | --- | --- | --- | --- | --- |
| O=CCCCC=O [Glutaraldehyde] | 500 |  |  |  |  |  |  |  |  |  |  |  |  |  |  |  |  |  |  |  |
| [O]=[Mo](=[O])([O-])[O-] [Molybdate] | 120 |  |  |  |  |  |  |  |  |  |  |  |  |  |  |  |  |  |  |  |
| O=NO [Nitrite] | 230 |  |  |  |  |  |  |  |  |  |  |  |  |  |  |  |  |  |  |  |
| OCCN1CN(CCO)CN(CCO)C1 [Sample 3, hexahydro-1,3,5-tris(2-hydroxyethyl)-s-triazine] |  | >10^7 bacteria/mL | <100 | <100 | 100 | 1000 | 10^4 bacteria/mL | >10^7 bacteria/mL | 10^6 bacteria/mL | >10^7 bacteria/mL | 10^4 | 0 | 0 | 0 | 10 | 10 | 10^3 | 10^4 | 10^3 |  |
| OCCN1CN(CCO)CN(CCO)C1 [Sample 4, hexahydro-1,3,5-tris(2-hydroxyethyl)-s-triazine] |  | >10^7 bacteria/mL | <100 | 100 | 100 | 1000 | 10^5 bacteria/mL | >10^7 bacteria/mL | >10^7 bacteria/mL | >10^7 bacteria/mL | 10^3 | 0 | 0 | 0 | 0 | 100 | 10 | 100 | 100 |  |
| CCCCNC(=O)OCC#CI [Sample 7, 3-iodo-2-propynyl butyl carbamate] |  | >10^7 bacteria/mL | <100 | <100 | 100 | 100 | 100 bacteria/mL | 1000 bacteria/mL | 10^4 bacteria/mL | 10^5 bacteria/mL | 10^3 | 0 | 0 | 0 | 0 | 100 | 10 | 100 | 10^3 |  |
| CCCCNC(=O)OCC#CI [Sample 8, 3-iodo-2-propynyl butyl carbamate] |  | >10^7 bacteria/mL | <100 | <100 | 100 | 100 | 100 bacteria/mL | 10^4 bacteria/mL | 10^5 bacteria/mL | >10^7 bacteria/mL | 10^4 | 0 | 0 | 0 | 100 | 10^3 | 10^3 | 10^3 | 10^3 |  |
| OCl [hypochlorite, sodium hypochlorite] |  |  |  |  |  |  |  |  |  |  |  |  |  |  |  |  |  |  |  | time hydrogen sulfide stayed at zero [4, 6]: less than one; time to zero hydrogen sulfide production [4, 6]: six; additional suppression of hydrogen sulfide production ([4]; after another identical dose of hypochlorite): less than one |
| O=[N+]([O-])[O-].[Na+] [sodium nitrate] |  |  |  |  |  |  |  |  |  |  |  |  |  |  |  |  |  |  |  | extent of decrease in sulfide production relative to the decrease observed with the composition of Example 1 [5]: 10-15% |
| Benzalkonium chloride | 50 |  |  |  |  |  |  |  |  |  |  |  |  |  |  |  |  |  |  |  |
| tetrakis(hydroxymethyl)phosphonium sulfate [Sample 13] |  | >10^7 bacteria/mL | <100 | <100 | 100 | 1000 | 1000 bacteria/mL | >10^5 bacteria/mL | 10^6 bacteria/mL | >10^7 bacteria/mL | 10^3 | 0 | 0 | 0 | 0 | 100 | 10 | 100 | 10^3 |  |
| tetrakis(hydroxymethyl)phosphonium sulfate [Sample 14] |  | >10^7 bacteria/mL | <100 | 100 | 100 | 1000 | 10^5 bacteria/mL | >10^7 bacteria/mL | >10^7 bacteria/mL | >10^7 bacteria/mL | 10^4 | 0 | 0 | 0 | 100 | 10^3 | 10^3 | 10^3 | 10^3 |  |
